US10072096B2, “Modified glycoprotein, protein-conjugate and process for the preparation thereof” (SynAffix B.V., priority 2013, dated 2018)

Assay: Stability studies of succinimides 67-69 in PBS with or without glutathione, product ratio by LC-MS
Type: physicochemical
Settings: 37° C.
Method: One of succinimide conjugates 67-69 (1 mg) was dissolved in DMF (400 μL) followed by the addition of buffer solution 1, 2 or 3 (800 μL). Buffer solution 1 is PBS, buffer solution 2 is PBS+1 mM glutathione (GSH, reduced) and buffer solution 3 is PBS+1 mM glutathione (oxidized). Final concentration of glutathione (through dilution with DMF) is […]. The samples were incubated at 37° C. and measured in time. Ratio of products was determined by LC-MS.

[1] = 48 h, buffer 2 (PBS+1 mM glutathione, reduced; final 0.71 mM)
[2] = 48 h, buffer 3 (PBS+1 mM glutathione, oxidized; final 0.71 mM)
[3] = 120 h, buffer 2 (PBS+1 mM glutathione, reduced; final 0.71 mM)
[4] = 120 h, buffer 3 (PBS+1 mM glutathione, oxidized; final 0.71 mM)

Compound | Relative ratio: GS adduct (glutathione adduct formed by reverse Michael, then GSH addition) (48 h, buffer 1 (PBS)) | Relative ratio: Hydro pro (hydrolyzed succinimide) (48 h, buffer 1 (PBS)) | Relative ratio: Succinimide (starting succinimide) (48 h, buffer 1 (PBS)) | Relative ratio: GS adduct (glutathione adduct formed by reverse Michael, then GSH addition) [1] | Relative ratio: Hydro pro (hydrolyzed succinimide) [1] | Relative ratio: Succinimide (starting succinimide) [1] | Relative ratio: GS adduct (glutathione adduct formed by reverse Michael, then GSH addition) [2] | Relative ratio: Hydro pro (hydrolyzed succinimide) [2] | Relative ratio: Succinimide (starting succinimide) [2] | Relative ratio: GS adduct (glutathione adduct formed by reverse Michael, then GSH addition) (120 h, buffer 1 (PBS)) | Relative ratio: Hydro pro (hydrolyzed succinimide) (120 h, buffer 1 (PBS)) | Relative ratio: Succinimide (starting succinimide) (120 h, buffer 1 (PBS)) | Relative ratio: GS adduct (glutathione adduct formed by reverse Michael, then GSH addition) [3] | Relative ratio: Hydro pro (hydrolyzed succinimide) [3] | Relative ratio: Succinimide (starting succinimide) [3] | Relative ratio: GS adduct (glutathione adduct formed by reverse Michael, then GSH addition) [4] | Relative ratio: Hydro pro (hydrolyzed succinimide) [4] | Relative ratio: Succinimide (starting succinimide) [4]
O=C(CCCN1C(=O)CC(SCCCC(=O)NCc2ccccc2)C1=O)NCCOCCOCCNC(=O)c1ccc2ccc3cccc4ccc1c2c34 (stereo not drawn) [Compound 69] | 0 | 25 | 75 | 6 | 14 | 79 | 4 | 11 | 85 | 0 | 63 | 37 | 12 | 39 | 49 | 10 | 33 | 57
O=C(CCCN1C(=O)CC(SCCC(=O)NCc2ccccc2)C1=O)NCCOCCOCCNC(=O)c1ccc2ccc3cccc4ccc1c2c34 (stereo not drawn) [Compound 68] | 0 | 21 | 79 | 9 | 16 | 75 | 7 | 13 | 80 | 0 | 53 | 47 | 17 | 41 | 42 | 16 | 35 | 49
O=C(CCCN1C(=O)CC(SCC(=O)NCc2ccccc2)C1=O)NCCOCCOCCNC(=O)c1ccc2ccc3cccc4ccc1c2c34 (stereo not drawn) [Compound 67] | 0 | 43 | 57 | 41 | 18 | 41 | 31 | 12 | 57 | – | – | – | 52 | 38 | 3 | 59 | 28 | 9
